In general, EC50 refers to the midpoint of the concentration-response curve.

This note sets out measurements from US11926612B2, “Heterocyclic apelin receptor (APJ) agonists and uses thereof” (Research Triangle Institute, priority 2016, dated 2024).

Bounds are passed on as bounds.

The assay addresses T1, apelin receptor (APJ) (Homo sapiens, UniProt P35414).
T1 sequence (P35414 1-380): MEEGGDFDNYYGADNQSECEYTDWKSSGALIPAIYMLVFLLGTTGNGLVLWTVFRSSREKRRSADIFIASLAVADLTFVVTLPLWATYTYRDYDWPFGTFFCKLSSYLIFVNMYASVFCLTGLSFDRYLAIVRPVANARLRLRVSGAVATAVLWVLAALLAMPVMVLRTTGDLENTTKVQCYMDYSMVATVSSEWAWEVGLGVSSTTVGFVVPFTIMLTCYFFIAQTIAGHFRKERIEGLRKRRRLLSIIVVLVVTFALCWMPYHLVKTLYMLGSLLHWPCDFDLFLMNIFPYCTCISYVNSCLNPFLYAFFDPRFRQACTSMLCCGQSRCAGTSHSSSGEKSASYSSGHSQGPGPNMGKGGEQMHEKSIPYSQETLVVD
Nature of the assay: in vitro activity as apelin agonists (methods of Giddings et al.; Apelin-13 positive control). It counts as cell-based. The conditions noted are these: apelin agonist activity, average; read-out: EC50 (nM) Ave. The text has this:
The compounds above were studied for their in vitro activity as apelin agonists using the methods described by Giddings et al. Giddings et al., 2010 Int J High Thro Screen. 1:39-47, the contents of which are hereby incorporated by reference in its entirety. The methods described in Giddings et al. were used as described and Apelin-13 was a positive control.

Regarding `O=C(O)C[C@H](CCN1CCCC(F)(F)C1)NC(=O)c1nc(C2CCCC2)n(-c2cccnc2C(F)(F)F)n1` [compound 513, (3S)-3-({5-cyclopentyl-1-[2-(trifluoromethyl)pyridin-3-yl]-1H-1,2,4-triazol-3-yl}formamido)-5-(3,3-difluoropiperidin-1-yl)pentanoic acid], the EC50 was more than 10000 nM. Regarding `CN(C(=O)C[C@H](CCN1CCCC(F)(F)C1)NC(=O)c1cn(-c2ccccc2C(F)(F)F)c(C2CCCC2)n1)c1nccs1` [compound 473, (3S)-3-({2-cyclopentyl-1-[2-(trifluoromethyl)phenyl]-1H-imidazol-4-yl}formamido)-5-(3,3-difluoropiperidin-1-yl)-N-methyl-N-(1,3-thiazol-2-yl)pentanamide], the EC50 turned out to be 46 nM.

Regarding `CN(C(=O)C[C@H](CCN1CCCC(F)(F)C1)NC(=O)c1nc(-c2ccccc2C(F)(F)F)n(C2CCCC2)n1)c1nccs1` [compound 456, (3S)-3-({1-cyclopentyl-5-[2-(trifluoromethyl)phenyl]-1H-1,2,4-triazol-3-yl}formamido)-5-(3,3-difluoropiperidin-1-yl)-N-methyl-N-(1,3-thiazol-2-yl)pentanamide], the EC50 turned out to be 48 nM.

As for `CC(C)Cc1c(-c2ccccc2Cl)nc(C(=O)N[C@@H](CCN2CCCC(F)(F)C2)CC(=O)O)n1C` [compound 476, (3S)-3-{[4-(2-chlorophenyl)-1-methyl-5-(2-methylpropyl)-1H-imidazol-2-yl]formamido}-5-(3,3-difluoropiperidin-1-yl)pentanoic acid], the EC50 is more than 10000 nM. On to `O=C(C[C@H](CCN1CCCCC1)NC(=O)c1nc(-c2ccccc2C(F)(F)F)n(C2CCCC2)n1)NC1CCC1` [compound 446, (3S)-N-cyclobutyl-3-({1-cyclopentyl-5-[2-(trifluoromethyl)phenyl]-1H-1,2,4-triazol-3-yl}formamido)-5-(piperidin-1-yl)pentanamide], for which the EC50 stood at 310 nM. With `COCCN(C)C(=O)[C@H](CCc1ccccc1)NC(=O)c1nc(C2CCCC2)n(-c2ccccc2C(F)(F)F)n1` [compound 543, (2S)-2-({5-cyclopentyl-1-[2-(trifluoromethyl)phenyl]-1H-1,2,4-triazol-3-yl}formamido)-N-(2-methoxyethyl)-N-methyl-4-phenylbutanamide], the EC50 came to 754 nM. As to `CN(C(=O)C[C@H](CCN1CCCC(F)(F)C1)N(C)C(=O)c1nc(C2CCCC2)n(-c2ccccc2C(F)(F)F)n1)c1nccs1` [compound 474, (3S)-3-(1-{5-cyclopentyl-1-[2-(trifluoromethyl)phenyl]-1H-1,2,4-triazol-3-yl}-N-methylformamido)-5-(3,3-difluoropiperidin-1-yl)-N-methyl-N-(1,3-thiazol-2-yl)pentanamide], the EC50 stood at 588 nM. For `O=C(C[C@H](CCN1CCCC(F)(F)C1)NC(=O)c1nc(C2CCCC2)n(-c2cccnc2C(F)(F)F)n1)NC1CCC1` [compound 531, (3S)-N-cyclobutyl-3-({5-cyclopentyl-1-[2-(trifluoromethyl)pyridin-3-yl]-1H-1,2,4-triazol-3-yl}formamido)-5-(3,3-difluoropiperidin-1-yl)pentanamide], the EC50 was found to be 323 nM. The value for `O=C(C[C@H](CCN1CCCC(F)(F)C1)NC(=O)c1nc(-c2ccccc2C(F)(F)F)n(C2CCCC2)n1)NC1CCC1` [compound 453, (3S)-N-cyclobutyl-3-({1-cyclopentyl-5-[2-(trifluoromethyl)phenyl]-1H-1,2,4-triazol-3-yl}formamido)-5-(3,3-difluoropiperidin-1-yl)pentanamide] was 9 nM; that for `O=C(C[C@H](CCN1CCCC(F)(F)C1)NC(=O)c1nc(-c2cccnc2C(F)(F)F)n(C2CCCC2)n1)NC1CCC1` [compound 532, (3S)-N-cyclobutyl-3-({1-cyclopentyl-5-[2-(trifluoromethyl)pyridin-3-yl]-1H-1,2,4-triazol-3-yl}formamido)-5-(3,3-difluoropiperidin-1-yl)pentanamide] was 2540 nM. The figure for `O=C(O)C[C@H](CCN1CCCC(F)(F)C1)NC(=O)c1nc(-c2ncccc2C(F)(F)F)n(C2CCCC2)n1` [compound 512, (3S)-3-({1-cyclopentyl-5-[3-(trifluoromethyl)pyridin-2-yl]-1H-1,2,4-triazol-3-yl}formamido)-5-(3,3-difluoropiperidin-1-yl)pentanoic acid] is 152 nM; for `O=C(O)C[C@H](CCN1CCC(F)(F)C1)NC(=O)c1nc(C2CCCC2)n(-c2ccccc2C(F)(F)F)n1` [compound 586, (3S)-3-({5-cyclopentyl-1-[2-(trifluoromethyl)phenyl]-1H-1,2,4-triazol-3-yl}formamido)-5-(3,3-difluoropyrrolidin-1-yl)pentanoic acid] it is 74 nM. The value for `O=C(C[C@H](CCN1CCCC(F)(F)C1)NC(=O)c1nc(C2CCCC2)n(-c2ccccc2C(F)(F)F)n1)NC1CCC1` [compound 454, (3S)-N-cyclobutyl-3-({5-cyclopentyl-1-[2-(trifluoromethyl)phenyl]-1H-1,2,4-triazol-3-yl}formamido)-5-(3,3-difluoropiperidin-1-yl)pentanamide] was 8.3 nM; that for `COCCN(C)C(=O)[C@H](CCc1ccccc1)NC(=O)c1nc(-c2ccccc2C(F)(F)F)n(C2CCCC2)n1` [compound 569, (2S)-2-({1-cyclopentyl-5-[2-(trifluoromethyl)phenyl]-1H-1,2,4-triazol-3-yl}formamido)-N-(2-methoxyethyl)-N-methyl-4-phenylbutanamide] was more than 10000 nM; that for `O=C(O)C[C@H](CCN1CCCC(F)(F)C1)NC(=O)c1cn(-c2ccccc2C(F)(F)F)c(C2CCCC2)n1` [compound 617, (3S)-3-({2-cyclopentyl-1-[2-(trifluoromethyl)phenyl]-1H-imidazol-4-yl}formamido)-5-(3,3-difluoropiperidin-1-yl)pentanoic acid] was 13 nM. Turning to `CC(C)Cc1c(-c2ccccc2Cl)nc(C(=O)N[C@@H](CCN2CCCC(F)(F)C2)CC(=O)N(C)c2nccs2)n1C` [compound 477, (3S)-3-{[4-(2-chlorophenyl)-1-methyl-5-(2-methylpropyl)-1H-imidazol-2-yl]formamido}-5-(3,3-difluoropiperidin-1-yl)-N-methyl-N-(1,3-thiazol-2-yl)pentanamide], the EC50 is more than 10000 nM. Turning to `O=C(C[C@H](CCN1CCCCC1)NC(=O)c1nc(C2CCCC2)n(-c2ccccc2C(F)(F)F)n1)NC1CCC1` [compound 444, (3S)-N-cyclobutyl-3-({5-cyclopentyl-1-[2-(trifluoromethyl)phenyl]-1H-1,2,4-triazol-3-yl}formamido)-5-(piperidin-1-yl)pentanamide], the EC50 was 40 nM. Consider `O=C(N[C@@H](CCN1CCCC(F)(F)C1)Cc1nnn[nH]1)c1cn(-c2ccccc2C(F)(F)F)c(C2CCCC2)n1` [compound 620], for which the EC50 was 8 nM.

For the compound `O=C(O)C[C@H](CCN1CCCC(F)(F)C1)NC(=O)c1nc(-c2ccccc2C(F)(F)F)n(C2CCCC2)n1` [compound 462, (3S)-3-({1-cyclopentyl-5-[2-(trifluoromethyl)phenyl]-1H-1,2,4-triazol-3-yl}formamido)-5-(3,3-difluoropiperidin-1-yl)pentanoic acid], the half-maximal effective concentration (EC50) worked out at 384 nM. The figure for `CN(C(=O)C[C@H](CCN1CCCC(F)(F)C1)NC(=O)c1nc(C2CCCC2)n(-c2ccccc2C(F)(F)F)n1)c1nccs1` [compound 455, (3S)-3-({5-cyclopentyl-1-[2-(trifluoromethyl)phenyl]-1H-1,2,4-triazol-3-yl}formamido)-5-(3,3-difluoropiperidin-1-yl)-N-methyl-N-(1,3-thiazol-2-yl)pentanamide] is 22 nM; for `CC(C)Cc1c(-c2ccccc2Cl)nc(C(=O)N[C@@H](CCN2CCCC(F)(F)C2)CC(=O)NC2CCC2)n1C` [compound 478, (3S)-3-{[4-(2-chlorophenyl)-1-methyl-5-(2-methylpropyl)-1H-imidazol-2-yl]formamido}-N-cyclobutyl-5-(3,3-difluoropiperidin-1-yl)pentanamide] it is more than 10000 nM.
